Results: ChEMBL document CHEMBL1141262, “Cytotoxic diterpenoids from the hybrid soft coral Sinularia maxima x Sinularia polydactyla” (2007)

Tests used:
Format in all cases: functional
DU-145 = experiment: Cytotoxicity against human DU145 cells after 72 hrs; details: for CC50: read-out: LC50 (the source's name)
LNCaP = experiment: Cytotoxicity against human LNcaP cells after 72 hrs; details: for CC50: read-out: LC50 (the source's name)
[1] = Cytotoxicity against human IGROV cells after 72 hrs; details: for CC50: read-out: LC50 (the source's name)
[2] = Cytotoxicity against ET-743 resistant human IGROV cells after 72 hrs
SK-BR-3 = experiment: Cytotoxicity against human SK-BR3 cells after 72 hrs; details: for CC50: read-out: LC50 (the source's name)
A549 = experiment: Cytotoxicity against human A549 cells after 72 hrs
K562 = experiment: Cytotoxicity against human K562 cells after 72 hrs; details: for CC50: read-out: LC50 (the source's name)
PANC-1 = experiment: Cytotoxicity against human PANC1 cells after 72 hrs; details: for CC50: read-out: LC50 (the source's name)
HT-29 = experiment: Cytotoxicity against human HT29 cells after 72 hrs
LoVo [3] = experiment: Cytotoxicity against human LoVo cells after 72 hrs; details: for CC50: read-out: LC50 (the source's name)
LoVo [4] = experiment: Cytotoxicity against doxorubicin resistant human LoVo cells after 72 hrs
HeLa [5] = experiment: Cytotoxicity against human HeLa cells after 72 hrs; details: for CC50: read-out: LC50 (the source's name)
HeLa [6] = experiment: Cytotoxicity against aplidine resistant human HeLa cells after 72 hrs; details: for CC50: read-out: LC50 (the source's name)
SK-MEL-28 = experiment: Cytotoxicity against human SK-MEL-28 cells after 72 hrs

Compound: C=C(C)[C@H]1C/C2=C(\C(=O)OC)[C@@H]3O[C@@](C)(CC3=O)C[C@@H]3C=C(C(=O)O3)[C@H](C1)O2
- GI50 (DU-145; Homo sapiens, DU-145, 72 h): 4.35 µM
- TGI (DU-145; Homo sapiens, DU-145, 72 h): 8.32 µM
- CC50 (DU-145; Homo sapiens, DU-145, 72 h): 15.9 µM
- GI50 (LNCaP): 5.05 µM
- TGI (LNCaP): 8.96 µM
- CC50 (LNCaP): 15.9 µM
- GI50 ([1]; Homo sapiens, IGROV, 72 h): 4.05 µM
- TGI ([1]; Homo sapiens, IGROV, 72 h): 7.68 µM
- CC50 ([1]; Homo sapiens, IGROV, 72 h): 14.6 µM
- GI50 ([2]; Homo sapiens, IGROV, 72 h): 4.56 µM
- LC50 (50% lethal concentration) ([2]; Homo sapiens, IGROV, 72 h): 16.5 µM
- TGI ([2]; Homo sapiens, IGROV, 72 h): 8.68 µM
- GI50 (SK-BR-3; Homo sapiens, SK-BR-3, 72 h): 6.4 µM
- TGI (SK-BR-3; Homo sapiens, SK-BR-3, 72 h): 11.4 µM
- CC50 (SK-BR-3; Homo sapiens, SK-BR-3, 72 h): 20.3 µM
- GI50 (A549; Homo sapiens, A549, 72 h): 5.56 µM
- LC50 (A549; Homo sapiens, A549, 72 h): 25.6 µM
- TGI (A549; Homo sapiens, A549, 72 h): 11.9 µM
- GI50 (K562; Homo sapiens, K562, 72 h): 5.58 µM
- TGI (K562; Homo sapiens, K562, 72 h): 8.89 µM
- CC50 (K562; Homo sapiens, K562, 72 h): 14.2 µM
- GI50 (PANC-1; Homo sapiens, PANC-1, 72 h): 3.64 µM
- TGI (PANC-1; Homo sapiens, PANC-1, 72 h): 7.15 µM
- CC50 (PANC-1; Homo sapiens, PANC-1, 72 h): 14.1 µM
- GI50 (HT-29; Homo sapiens, HT-29, 72 h): 6.48 µM
- LC50 (concentration killing 50% of cells) (HT-29; Homo sapiens, HT-29, 72 h): > 25.6 µM
- TGI (HT-29; Homo sapiens, HT-29, 72 h): 15.4 µM
- GI50 (LoVo [3]; Homo sapiens, LoVo, 72 h): 3.41 µM
- TGI (LoVo [3]; Homo sapiens, LoVo, 72 h): 6.61 µM
- CC50 (LoVo [3]; Homo sapiens, LoVo, 72 h): 12.8 µM
- GI50 (LoVo [4]; Homo sapiens, LoVo, 72 h): 5.66 µM
- LC50 (LoVo [4]; Homo sapiens, LoVo, 72 h): > 25.6 µM
- TGI (LoVo [4]; Homo sapiens, LoVo, 72 h): 16.5 µM
- GI50 (HeLa [5]; Homo sapiens, HeLa, 72 h): 4.38 µM
- TGI (HeLa [5]; Homo sapiens, HeLa, 72 h): 8.04 µM
- CC50 (HeLa [5]; Homo sapiens, HeLa, 72 h): 14.8 µM
- GI50 (HeLa [6]; Homo sapiens, HeLa, 72 h): 3.77 µM
- TGI (HeLa [6]; Homo sapiens, HeLa, 72 h): 7.5 µM
- CC50 (HeLa [6]; Homo sapiens, HeLa, 72 h): 15 µM
- GI50 (SK-MEL-28; Homo sapiens, SK-MEL-28, 72 h): 4.25 µM
- LC50 (SK-MEL-28; Homo sapiens, SK-MEL-28, 72 h): 13.6 µM
- TGI (SK-MEL-28; Homo sapiens, SK-MEL-28, 72 h): 7.61 µM

Compound: C=C(C)[C@H]1C/C2=C(\C(=O)OC)C(OC(C)CC)C(=O)/C=C(\C)C[C@@H]3C=C(C(=O)O3)[C@H](C1)O2 (stereo in doubt; 2)
- GI50 (DU-145): 3.98 µM
- TGI (DU-145): 7.56 µM
- CC50 (DU-145): 14.4 µM
- GI50 [1]: 3.4 µM
- TGI [1]: 6.91 µM
- CC50 [1]: 14.1 µM
- GI50 [2]: 3.96 µM
- LC50 (50% lethal concentration) [2]: 15.8 µM
- TGI [2]: 7.92 µM
- GI50 (SK-BR-3): 0.58 µM
- TGI (SK-BR-3): 1.43 µM
- GI50 (A549): 5.85 µM
- LC50 (A549): > 22.5 µM
- TGI (A549): 12.3 µM
- GI50 (K562): 5.26 µM
- TGI (K562): 9.45 µM
- CC50 (K562): 17 µM
- GI50 (PANC-1): 2.9 µM
- TGI (PANC-1): 6.91 µM
- CC50 (PANC-1): 16.5 µM
- GI50 (HT-29): 4.93 µM
- LC50 (concentration killing 50% of cells) (HT-29): 18.5 µM
- TGI (HT-29): 9.54 µM
- GI50 (LoVo [3]): 3.46 µM
- TGI (LoVo [3]): 7.49 µM
- CC50 (LoVo [3]): 16.2 µM
- GI50 (LoVo [4]): 1.87 µM
- LC50 (LoVo [4]): 11.9 µM
- TGI (LoVo [4]): 4.95 µM
- GI50 (HeLa [5]): 3.33 µM
- TGI (HeLa [5]): 7.29 µM
- CC50 (HeLa [5]): 16 µM
- GI50 (HeLa [6]): 3.17 µM
- TGI (HeLa [6]): 8.5 µM
- CC50 (HeLa [6]): 22.5 µM
- GI50 (SK-MEL-28): 3.13 µM
- LC50 (SK-MEL-28): 13.5 µM
- TGI (SK-MEL-28): 6.5 µM

Compound: C=C(C)[C@H]1C/C2=C(\C(=O)OC)C(OC(C)CC)C(=O)/C=C(\C)C[C@@H]3C=C(C(=O)O3)[C@H](C1)O2 (stereo in doubt; 3)
- GI50 (DU-145): 1.95 µM
- TGI (DU-145; Homo sapiens, DU-145, 72 h): 5.31 µM
- CC50 (DU-145; Homo sapiens, DU-145, 72 h): 13.5 µM
- GI50 (LNCaP): 1.69 µM
- TGI (LNCaP): 5.17 µM
- CC50 (LNCaP): 14.3 µM
- GI50 [1]: 0.52 µM
- TGI [1]: 1.1 µM
- CC50 [1]: 3.3 µM
- GI50 [2]: 1.03 µM
- TGI [2]: 3.64 µM
- LC50 (50% lethal concentration) ([2]; Homo sapiens, IGROV, 72 h): 20.4 µM
- GI50 (SK-BR-3): 0.039 µM
- TGI (SK-BR-3): 0.28 µM
- CC50 (SK-BR-3; Homo sapiens, SK-BR-3, 72 h): > 22.5 µM
- GI50 (A549): 1.32 µM
- TGI (A549): 4.59 µM
- LC50 (A549; Homo sapiens, A549, 72 h): 16.3 µM
- GI50 (K562): 1.21 µM
- TGI (K562): 2.47 µM
- CC50 (K562; Homo sapiens, K562, 72 h): 10.6 µM
- GI50 (PANC-1): 0.58 µM
- TGI (PANC-1): 1.57 µM
- CC50 (PANC-1): 7.4 µM
- GI50 (HT-29): 1.47 µM
- TGI (HT-29): 4.14 µM
- LC50 (concentration killing 50% of cells) (HT-29; Homo sapiens, HT-29, 72 h): 11.1 µM
- GI50 (LoVo [3]): 0.51 µM
- TGI (LoVo [3]): 1.16 µM
- CC50 (LoVo [3]): 3.8 µM
- GI50 (LoVo [4]): 0.75 µM
- LC50 (LoVo [4]; Homo sapiens, LoVo, 72 h): 13.8 µM
- TGI (LoVo [4]; Homo sapiens, LoVo, 72 h): 2.72 µM
- GI50 (HeLa [5]): 0.48 µM
- TGI (HeLa [5]): 0.93 µM
- CC50 (HeLa [5]): 1.8 µM
- GI50 (HeLa [6]): 0.56 µM
- TGI (HeLa [6]): 1.31 µM
- CC50 (HeLa [6]): 5.26 µM
- GI50 (SK-MEL-28): 0.54 µM
- LC50 (SK-MEL-28): 2.13 µM
- TGI (SK-MEL-28): 1.08 µM
